{"source": "DBAASP", "assay_in_all_cases": "≥ marks a high value that may be exact or a test limit, other limits are often not marked, values filed in µg/mL are converted to µM", "key": {"[1]": {"test_system": "Escherichia coli KCTC 1682"}, "[2]": {"test_system": "Bacillus subtilis KCTC 1918"}, "[3]": {"test_system": "Candida albicans TIMM 1768"}, "[4]": {"test_system": "Streptococcus pyogenes KCTC 3096"}, "[5]": {"test_system": "Pseudomonas aeruginosa KCTC 1637"}, "[6]": {"test_system": "Staphylococcus aureus KCTC 1621"}, "[7]": {"test_system": "Salmonella typhimurium KCTC 1926"}, "[8]": {"test_system": "Aspergillus fumigatus KCTC 4165"}}, "data": [{"smiles": "CC[C@H](C)[C@H](NC(=O)[C@H](CCCCN)NC(=O)[C@H](CCCCN)NC(=O)[C@H](CC(C)C)NC(=O)[C@H](CCCCN)NC(=O)[C@H](CCCCN)NC(=O)CN)C(=O)NCC(=O)N[C@@H](CCC(N)=O)C(=O)N[C@@H](CCCCN)C(=O)N[C@H](C(=O)N[C@@H](CCCCN)C(=O)N[C@@H](CC(N)=O)C(=O)N[C@@H](Cc1ccccc1)C(=O)N[C@@H](Cc1ccccc1)C(=O)N[C@@H](CCC(N)=O)C(=O)N[C@@H](CCCCN)C(=O)N[C@@H](CC(C)C)C(=O)O)[C@@H](C)CC", "note": "[GKKLKKIGQKIKNFFQKL]", "values": [{"measurement": "MIC", "setting": "[1]", "value": 3.12, "unit": "µM"}, {"measurement": "MIC", "setting": "[2]", "value": 3.12, "unit": "µM"}, {"measurement": "MIC", "setting": "[3]", "value": 6.25, "unit": "µM"}, {"measurement": "MIC", "setting": "[4]", "value": 3.12, "unit": "µM"}, {"measurement": "MIC", "setting": "[5]", "value": 0.78, "unit": "µM"}, {"measurement": "MIC", "setting": "[6]", "value": 1.56, "unit": "µM"}, {"measurement": "MIC", "setting": "[7]", "value": 1.56, "unit": "µM"}, {"measurement": "MIC", "setting": "[8]", "value": 12.5, "unit": "µM"}]}]}
